# Reference: patent publication US20230024096A1, “BIFUNCTIONAL COMPOUNDS FOR THE TREATMENT OF CANCER” (Hoffmann-La Roche Inc., priority 2019, published 2023)
# Target: T1, SMARCA2 (Homo sapiens, UniProt P51531)
# T1 construct: endogenous in cells; host or cells: HT1080 (CRISPR HiBiT knock-in clone, generated in house)
# Assay: SMARCA2 HiBiT degradation assay (cellular)
# Format: cell-based
# Details: table head names A549; for DC50: 6 h incubation, HiBiT-tagged SMARCA2, luminescence read-out, read-out: HiBit A549 SMARCA2 IP (nM) 6 h; for Emax: A549, 6 h incubation, Emax = amount of residual protein remaining in the cell following compound treatment
# T1 sequence (P51531 whole entry): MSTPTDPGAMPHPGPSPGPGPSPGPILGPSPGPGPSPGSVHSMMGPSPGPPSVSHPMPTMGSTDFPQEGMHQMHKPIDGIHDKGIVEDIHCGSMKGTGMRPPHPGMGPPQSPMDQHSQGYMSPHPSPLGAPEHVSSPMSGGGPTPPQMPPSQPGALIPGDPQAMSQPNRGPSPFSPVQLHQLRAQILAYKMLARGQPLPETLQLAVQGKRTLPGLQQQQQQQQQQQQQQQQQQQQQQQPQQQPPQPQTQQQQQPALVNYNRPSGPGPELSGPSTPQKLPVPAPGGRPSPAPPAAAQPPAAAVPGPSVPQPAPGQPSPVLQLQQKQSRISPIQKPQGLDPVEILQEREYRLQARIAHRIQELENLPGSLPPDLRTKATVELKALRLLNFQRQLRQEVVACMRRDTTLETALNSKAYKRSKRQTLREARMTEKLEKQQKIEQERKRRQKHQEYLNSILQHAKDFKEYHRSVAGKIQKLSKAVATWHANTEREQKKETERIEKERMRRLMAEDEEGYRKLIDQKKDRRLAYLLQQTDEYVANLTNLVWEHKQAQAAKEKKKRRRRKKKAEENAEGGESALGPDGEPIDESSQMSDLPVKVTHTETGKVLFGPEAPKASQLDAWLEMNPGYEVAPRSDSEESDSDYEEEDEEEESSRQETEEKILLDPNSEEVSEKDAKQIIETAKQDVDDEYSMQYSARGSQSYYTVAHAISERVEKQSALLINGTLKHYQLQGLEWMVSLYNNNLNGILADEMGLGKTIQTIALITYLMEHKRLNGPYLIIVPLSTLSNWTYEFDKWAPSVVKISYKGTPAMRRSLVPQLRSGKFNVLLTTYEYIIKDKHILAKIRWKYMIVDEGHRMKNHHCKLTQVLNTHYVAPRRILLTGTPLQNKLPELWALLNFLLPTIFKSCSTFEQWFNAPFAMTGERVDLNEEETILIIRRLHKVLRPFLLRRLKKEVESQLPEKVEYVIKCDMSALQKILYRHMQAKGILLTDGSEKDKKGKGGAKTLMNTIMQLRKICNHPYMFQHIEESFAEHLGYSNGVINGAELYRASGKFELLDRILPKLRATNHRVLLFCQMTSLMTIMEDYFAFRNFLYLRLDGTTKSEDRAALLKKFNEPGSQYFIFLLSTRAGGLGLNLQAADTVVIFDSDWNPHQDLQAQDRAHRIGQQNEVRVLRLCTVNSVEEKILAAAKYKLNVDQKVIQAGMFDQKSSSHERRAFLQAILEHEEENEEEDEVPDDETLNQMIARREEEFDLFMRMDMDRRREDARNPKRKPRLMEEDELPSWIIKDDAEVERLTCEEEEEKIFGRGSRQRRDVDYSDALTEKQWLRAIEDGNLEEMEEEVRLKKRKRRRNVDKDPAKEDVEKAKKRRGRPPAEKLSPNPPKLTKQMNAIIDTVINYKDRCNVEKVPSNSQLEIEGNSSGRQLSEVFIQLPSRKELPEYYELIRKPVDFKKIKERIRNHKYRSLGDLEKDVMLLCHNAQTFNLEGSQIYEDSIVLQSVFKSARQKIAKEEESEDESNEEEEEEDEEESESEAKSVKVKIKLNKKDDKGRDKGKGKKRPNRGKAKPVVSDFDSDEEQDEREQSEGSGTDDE
Structure (SMILES),DC50,Emax
"Nc1nnc(-c2ccccc2O)cc1N1CC2CCC(C1)N2c1cccc(CN2CCN(CCOC3CCN(c4ccc5c(c4)C(=O)N(C4CCC(=O)NC4=O)C5=O)CC3)CC2)c1 (racemic) [Example 55, rac-5-[4-[2-[4-[[3-[3-[3-amino-6-(2-hydroxyphenyl)pyridazin-4-yl]-3,8-diazabicyclo[3.2.1]octan-8-yl]phenyl]methyl]piperazin-1-yl]ethoxy]-1-piperidyl]-2-(2,6-dioxo-3-piperidyl)isoindoline-1,3-dione]",19 nM,35%
"Nc1nnc(-c2ccccc2O)cc1OC1CCCN(c2ccc(N3CCN(CCCCCCCCCn4cc(CCCNc5cccc6c5C(=O)N(C5CCC(=O)NC5=O)C6=O)nn4)CC3)cc2)C1 (stereo not shown) [Example 109, 4-[3-[1-[9-[4-[4-[3-[3-amino-6-(2-hydroxyphenyl)pyridazin-4-yl]oxy-1-piperidyl]phenyl]piperazin-1-yl]nonyl]triazol-4-yl]propylamino]-2-(2,6-dioxo-3-piperidyl)isoindoline-1,3-dione]",103 nM,29%
"Nc1nnc(-c2cc(F)ccc2O)cc1N1C2CCC1CN(c1cccc(OCCN3CCN(CC4CCN(c5ccc6c(c5)C(=O)N(C5CCC(=O)NC5=O)C6=O)CC4)CC3)c1)C2 (stereo not shown) [Example 57, 5-[4-[[4-[2-[3-[8-[3-amino-6-(5-fluoro-2-hydroxy-phenyl)pyridazin-4-yl]-3,8-diazabicyclo[3.2.1]octan-3-yl]phenoxy]ethyl]piperazin-1-yl]methyl]-1-piperidyl]-2-(2,6-dioxo-3-piperidyl)isoindoline-1,3-dione]",406 nM,67%
"Nc1nnc(-c2ccccc2O)cc1N1CCC(C(=O)N2CCC(C(=O)N3CCC(c4ccc(C5CCC(=O)NC5=O)cc4)CC3)CC2)(c2ccccc2)CC1 (stereo not shown) [Example 175, 3-(4-(1-(1-(1-(3-amino-6-(2-hydroxyphenyl)pyridazin-4-yl)-4-phenylpiperidine-4-carbonyl)piperidine-4-carbonyl)piperidin-4-yl)phenyl)piperidine-2,6-dione]",42 nM,47%
"Nc1nnc(-c2ccccc2O)cc1N1CCC(C(=O)NCC2CCN(C(=O)CC3CCN(c4ccc5c(c4)C(=O)N(C4CCC(=O)NC4=O)C5=O)CC3)CC2)(c2ccccc2)CC1 (stereo not shown) [Example 103, 1-(3-amino-6-(2-hydroxyphenyl)pyridazin-4-yl)-N-((1-(2-(1-(2-(2,6-dioxopiperidin-3-yl)-1,3-dioxoisoindolin-5-yl)piperidin-4-yl)acetyl)piperidin-4-yl)methyl)-4-phenylpiperidine-4-carboxamide]",104 nM,45%
"Nc1nnc(-c2ccccc2O)cc1OC1CCCN(c2ccc(OCCN3CCN(C(=O)CCCCCCCCCCCCC(=O)N4CCN(c5ccc(NC6CCC(=O)NC6=O)cc5)CC4)CC3)cc2)C1 (stereo not shown) [Example 25, 3-[4-[4-[14-[4-[2-[4-[3-[3-amino-6-(2-hydroxyphenyl)pyridazin-4-yl]oxy-1-piperidyl]phenoxy]ethyl]piperazin-1-yl]-14-oxo-tetradecanoyl]piperazin-1-yl]anilino]piperidine-2,6-dione]",614 nM,59%
"Nc1nnc(-c2ccccc2O)cc1N1CC2CCC(C1)N2c1cccc(OCCN2CCN(C(=O)CN3CCC(c4ccc(NC5CCC(=O)NC5=O)cc4)CC3)CC2)c1 (racemic) [Example 79, rac-3-[4-[1-[2-[4-[2-[3-[3-[3-amino-6-(2-hydroxyphenyl)pyridazin-4-yl]-3,8-diazabicyclo[3.2.1]octan-8-yl]phenoxy]ethyl]piperazin-1-yl]-2-oxo-ethyl]-4-piperidyl]anilino]piperidine-2,6-dione]",19 nM,46%
"Nc1nnc(-c2ccccc2O)cc1N1CCN(c2ccccc2)C(C(=O)NCC2CCN(C(=O)C3CCN(c4ccc5c(c4)C(=O)N(C4CCC(=O)NC4=O)C5=O)CC3)CC2)C1 (stereo not shown) [Example 82, 4-(3-amino-6-(2-hydroxyphenyl)pyridazin-4-yl)-N-((1-(1-(2-(2,6-dioxopiperidin-3-yl)-1,3-dioxoisoindolin-5-yl)piperidine-4-carbonyl)piperidin-4-yl)methyl)-1-phenylpiperazine-2-carboxamide]",190 nM,65%
"Nc1nnc(-c2ccccc2O)cc1N1CC2CCC(C1)N2c1cccc(OCCN2CCN(C(=O)COc3ccc4c(c3)C(=O)N(C3CCC(=O)NC3=O)C4=O)CC2)c1 (racemic) [Example 99, rac-5-[2-[4-[2-[3-[3-[3-amino-6-(2-hydroxyphenyl)pyridazin-4-yl]-3,8-diazabicyclo[3.2.1]octan-8-yl]phenoxy]ethyl]piperazin-1-yl]-2-oxo-ethoxy]-2-(2,6-dioxo-3-piperidyl)isoindoline-1,3-dione]",31 nM,51%
"Nc1nnc(-c2ccccc2O)cc1N1CCC(C(=O)N2CC3(CCN(CCOC4CCN(c5ccc6c(c5)C(=O)N(C5CCC(=O)NC5=O)C6=O)CC4)C3)C2)(c2ccccc2)CC1 (stereo not shown) [Example 192, 5-[4-[2-[2-[1-[3-amino-6-(2-hydroxyphenyl)pyridazin-4-yl]-4-phenyl-piperidine-4-carbonyl]-2,7-diazaspiro[3.4]octan-7-yl]ethoxy]-1-piperidyl]-2-(2,6-dioxo-3-piperidyl)isoindoline-1,3-dione]",57 nM,34%
"Nc1nnc(-c2ccccc2O)cc1N1CC2CCC(C1)N2c1cccc(OCCN2CCN(C(=O)C3CN(c4ccc5c(c4)C(=O)N(C4CCC(=O)NC4=O)C5=O)C3)CC2)c1 (racemic) [Example 60, rac-5-[3-[4-[2-[3-[3-[3-amino-6-(2-hydroxyphenyl)pyridazin-4-yl]-3,8-diazabicyclo[3.2.1]octan-8-yl]phenoxy]ethyl]piperazine-1-carbonyl]azetidin-1-yl]-2-(2,6-dioxo-3-piperidyl)isoindoline-1,3-dione]",18 nM,32%
"Nc1nnc(-c2ccccc2O)cc1N1CC2CCC(C1)N2c1cccc(OCCN2CCN(C(=O)N3CCC(c4ccc(OC5CCC(=O)NC5=O)cc4)CC3)CC2)c1 (racemic) [Example 50, rac-3-[4-[1-[4-[2-[3-[3-[3-amino-6-(2-hydroxyphenyl)pyridazin-4-yl]-3,8-diazabicyclo[3.2.1]octan-8-yl]phenoxy]ethyl]piperazine-1-carbonyl]-4-piperidyl]phenoxy]piperidine-2,6-dione]",16 nM,44%
"Nc1nnc(-c2ccccc2O)cc1N1CC2CCC(C1)N2c1cccc(OCCN2CCN(C(=O)C3CCN(c4ccc5c(c4)C(=O)N(C4CCC(=O)NC4=O)C5=O)CC3)CC2)c1 (racemic) [Example 142, rac-5-[4-[4-[2-[3-[3-[3-amino-6-(2-hydroxyphenyl)pyridazin-4-yl]-3,8-diazabicyclo[3.2.1]octan-8-yl]phenoxy]ethyl]piperazine-1-carbonyl]-1-piperidyl]-2-(2,6-dioxo-3-piperidyl)isoindoline-1,3-dione]",2 nM,14%
"Nc1nnc(-c2ccccc2O)cc1N1CC2CCC(C1)N2c1cccc(CC2CCN(C(=O)CCNc3cccc4c3C(=O)N(C3CCC(=O)NC3=O)C4=O)CC2)c1 (racemic) [Example 58, rac-4-[[3-[4-[[3-[3-[3-amino-6-(2-hydroxyphenyl)pyridazin-4-yl]-3,8-diazabicyclo[3.2.1]octan-8-yl]phenyl]methyl]-1-piperidyl]-3-oxo-propyl]amino]-2-(2,6-dioxo-3-piperidyl)isoindoline-1,3-dione]",43 nM,59%
